Entries after “also recorded” stand apart in the source; their conditions may differ.
Assays:
ES-2 cells [1] = assay: Confocal microscopy competition with fluorescent analogue P30; assay type: cell-based; conditions: pretreatment at 3× IC50 for 30 min, then P30 (5 μM)
Method: ES-2 cells (3×10^5 cell) were attached overnight in […] petri dish plates containing 2 ml of RPMI media. Prior to imaging, cells were stained for 30 min with Mitotracker Red CMXRoss at 100 nM final concentration. Upon media replacement, samples were pre-treated with 3× IC50 of ferroptocide, P27, L1, QQ1 for 30 min followed by treatment with 5 μM P30 for an additional 30 min and a PBS wash. PBS or phenol free media was added to each dish and cells were stained with Hoechst 33342 (1 μg/mL).

ES-2 cell line = assay: 72 hr cell viability assay (Alamar Blue), dose response IC50; assay type: cell-based; conditions: for IC50: Homo sapiens, 72 hr, ES-2 cell line, Alamar Blue fluorescence, mean ± s.e.m., n ≥ 3; for anticancer activity (in words): 72 hr cell viability assay, ES-2 cells, relative to ferroptocide
Method: 40 μL of media was added to each well of a 384-well tissue culture-treated plate. 3×100 nL of compound in DMSO was then pin-transferred from compound storage plates (2 mM stocks) into media-containing wells using the Platemate Plus at the UIUC High Throughput Screening Facility. A 100,000 cells/mL suspension of ES-2 cells was prepared, and 10 μL was added to each well for a final concentration of 1000 cells/well. Doxorubicin (100 μM final) was used as a positive control. Plates were sealed with gas-permeable seals and incubated at 37° C. for 72 h. After incubation, 5 μL of Alamar blue (440 μM resazurin in sterile PBS) was added and allowed to incubate for 3-4 h, until visible color change occurred. Fluorescence was measured in a Molecular Devices SpectraMax 3 (excitation=555 nm, emission=585 nm, emission cutoff=570 nm).
To a 384-well plate, 40 μL of 1.25× compound dilution or 1.25% DMSO-containing media was added (final volume of 1% DMSO). Concentrations of compounds tested were 100 μM to 100 nM. On each plate at least 3 technical replicates per compound were performed. Next, 10 μL of a 100,000 cells/mL suspension was added to each well, yielding a final concentration of 1,000 cells/well. To three wells in column 2 was added 1 μL of 10 mM doxorubicin (final concentration of 200 μM) as positive control of cell death. Plates were sealed with gas-permeable seals and incubated at 37° C. for 72 h. At that time, 5 μL of Alamar blue (440 μM resazurin in sterile PBS) was added and plates were incubated for 3-4 hours. Fluorescence was read on a Molecular Devices SpectraMax 3 (excitation=555 nm, emission=585 nm, emission cutoff=570 nm). Wells were normalized to the average of untreated wells (0% cell death). The data were plotted as compound concentration versus percent dead cells and fitted to a logistic-dose response curve using OriginPro 2015 (OriginLab, Northampton, Mass.). The data were generated in triplicate, and IC50 values are reported as the average of three separate experiments along with standard error of the mean.

red blood cells = assay: Hemolysis assay; assay type: cell-based, human; conditions: 2 hr treatment with 333 μM
Method: Whole human blood in citrate phosphate dextrose was obtained from Bioreclamation LLC, stored at 4° C. and used before expiration date. 100 μL of whole blood was combined with 500 μL saline (0.9% NaCl) and centrifuged for 5 min at 300×g. The supernatant was carefully removed from the erythrocyte pellet and the liquid was discarded. Washed pellet 3× in 500 μL saline. The erythrocyte pellet was resuspended in 800 μL of Red Blood Cell Buffer (10 mM Na2HPO4, 150 mM NaCl, 1 mM MgCl2, pH 7.4). To a 0.5 mL eppendorf tube or a PCR plate was added 1.0 μL of 30× compound in DMSO and 19 μL RBC Buffer. For negative controls, 1.0 μL DMSO was combined with 19 μL RBC buffer. For positive controls, either 20 μL MilliQ H2O or 1.0 μL 30% Triton X-100 were combined with 19 μL RBC Buffer. Tubes or plates were briefly centrifuged. Next, 10 μL of washed erythrocyte suspension was added to each tube, then sealed. After incubation at 37° C. for 2 h, samples were centrifuged for 5 min at 300×g, and 20 μL of supernatant was carefully removed and transferred to wells of a clear flat-bottomed 384-well plate. Absorbance was measured at 540 nm. The data were plotted as compound concentration versus percent hemolysis, and fitted to OriginPro (OriginLab, Northampton, Mass.).

[2] = In vitro glutathione assay (LC-MS); assay type: physicochemical; conditions: 100 μM compound, 5 mM glutathione, PBS, 37° C.
Method: To an eppendorf tube added, 245 μL of 1×PBS, 5 μL of 10 mM DMSO stock of ferroptocide or P23 and 250 μL of reduced GSH (5 mM final concentration). Reactions were vortexed briefly and incubated at 37° C. Adduct formation was monitored at the indicated time points (0, 0.5, 1, 2, 3, 24 hr) by mixing an aliquot of 50 μL from the reaction mixture with 50 μL of MeOH before LC/MS analysis.

A549 cells = assay: Protection studies against ferroptocide-induced cell death, AV/PI; assay type: cell-based; conditions: pre-treatment with protecting agent
Method: (§1) ES-2, HCT 116, Mia PaCa-2, A549, and 4T1 cells (1×10^5 cells/mL) were plated overnight in 12 well plates, prior to addition of compounds. For protection studies, samples were pre-treated with each protecting agent such as 25 μM Q-VD-OPh, 250 μM trolox, 2 μM ferrostatin-1, 5 mM NAC-1 (neutralized pH), or 100 μM deferoxamine (DFO) for two hours or 1 hr (NAC-1) before compound addition. Cells were incubated for the appropriate times and harvested for flow cytometry analysis. Cell pellets were resuspended in binding buffer (10 mM HEPES, pH 7.4, 140 mM NaCl, 2.5 mM CaCl2) containing 2 μg/mL propidium iodide and 5 μL/mL Annexin V-FITC conjugate antibody and analyzed for cell viability after gating for forward and side scattering. Ten thousand events were collected per sample in BD LSR II Flow Cytometer (BD Bioscience) and FCS express V6, De Novo software was used to perform experimental analysis.

HCT 116 cells = assay: as above; assay type: cell-based; conditions: pre-treatment with protecting agent
Method: Cells were incubated for the appropriate times and harvested for flow cytometry analysis. Cell pellets were resuspended in binding buffer (10 mM HEPES, pH 7.4, 140 mM NaCl, 2.5 mM CaCl2) containing 2 μg/mL propidium iodide and 5 μL/mL Annexin V-FITC conjugate antibody and analyzed for cell viability after gating for forward and side scattering. Ten thousand events were collected per sample in BD LSR II Flow Cytometer (BD Bioscience) and FCS express V6, De Novo software was used to perform experimental analysis.

ES-2 cells [3] = assay: as above; assay type: cell-based; conditions: pre-treatment with protecting agent
Method: as §1

4T1 cells = assay: as above; assay type: cell-based, murine; conditions: pre-treatment with protecting agent
Method: as §1

Compound: CC[C@H](C)C(=O)O[C@H]1C[C@@H](C)C=C2C=C[C@H](C)[C@H](CC[C@@H]3C[C@@H](OC(=O)CCl)CC(=O)O3)[C@H]21 [Compound L1]
- competition of P30 staining (ES-2 cells [1]): non-competing compounds

Compound: C=CC(=C)[C@@H]1C[C@@H](OC(=O)CCl)[C@]2(C)[C@H](C)CC[C@]3(C[C@H](O)C(=O)[C@]32O)[C@H]1C [Compound P4]
- IC50 (ES-2 cell line): 6.7 µM
- hemolytic activity (red blood cells): no signs of hemolytic activity; also recorded: Lack of hemolytic activity

Compound: CO[C@H]1C[C@@]23CC[C@@H](C)[C@@](C)([C@H](OC(=O)CCl)C[C@@H](C4=CCn5c(=O)n(-c6ccccc6)c(=O)n5C4)[C@@H]2C)[C@]3(O)C1=O [Compound P19]
- anticancer activity (in words) (ES-2 cell line): did not change the activity
- IC50 (ES-2 cell line): 1.9 ± 0.1 µM

Compound: CC(=O)O[C@H]1C[C@@]23CC[C@@H](C)[C@@](C)([C@H](OC(=O)CCl)C[C@@H](C4=CCn5c(=O)n(-c6ccccc6)c(=O)n5C4)[C@@H]2C)[C@]3(O)C1=O [Compound P20]
- anticancer activity (in words) (ES-2 cell line): did not change the activity
- IC50 (ES-2 cell line): 1.4 ± 0.5 µM

Compound: CO[C@H]1C[C@@]23CC[C@@H](C)[C@@](C)([C@H](OC(C)=O)C[C@@H](C4=CCn5c(=O)n(-c6ccccc6)c(=O)n5C4)[C@@H]2C)[C@]3(O)C1=O [Compound P21]
- anticancer activity (in words) (ES-2 cell line): eliminated activity
- IC50 (ES-2 cell line): > 100 µM

Compound: C[C@@H]1CC[C@@]23C[C@H](O)C(=O)[C@@]2(O)[C@]1(C)[C@H](OC(=O)CF)C[C@@H](C1=CCn2c(=O)n(-c4ccccc4)c(=O)n2C1)[C@@H]3C [Compound P22]
- anticancer activity (in words) (ES-2 cell line): greatly diminished anticancer activity
- IC50 (ES-2 cell line): 34 ± 5.7 µM

Compound: C[C@@H]1CC[C@@]23C[C@H](O)C(=O)[C@@]2(O)[C@]1(C)[C@H](OC(=O)CI)C[C@@H](C1=CCn2c(=O)n(-c4ccccc4)c(=O)n2C1)[C@@H]3C [Compound P23]
- anticancer activity (in words) (ES-2 cell line): greater potency in cells
- IC50 (ES-2 cell line): 0.24 ± 0.002 µM
- reactivity with excess glutathione (in words) [2]: rapid reaction

Compound: CC(=O)OCC(=O)O[C@@H]1C[C@@H](C2=CCn3c(=O)n(-c4ccccc4)c(=O)n3C2)[C@H](C)[C@@]23CC[C@@H](C)[C@]1(C)[C@]2(O)C(=O)[C@@H](O)C3 [Compound P24]
- anticancer activity (in words) (ES-2 cell line): no anticancer activity
- IC50 (ES-2 cell line): > 100 µM

Compound: CO[C@H]1C[C@@]23CC[C@@H](C)[C@@](C)([C@H](OC(=O)C(Cl)Cl)C[C@@H](C4=CCn5c(=O)n(-c6ccccc6)c(=O)n5C4)[C@@H]2C)[C@]3(O)C1=O [Compound P25]
- anticancer activity (in words) (ES-2 cell line): no anticancer activity
- IC50 (ES-2 cell line): > 100 µM

Compound: CO[C@H]1C[C@@]23CC[C@@H](C)[C@@](C)([C@H](OC(=O)c4ccco4)C[C@@H](C4=CCn5c(=O)n(-c6ccccc6)c(=O)n5C4)[C@@H]2C)[C@]3(O)C1=O [Compound P26]
- anticancer activity (in words) (ES-2 cell line): no anticancer activity
- IC50 (ES-2 cell line): > 100 µM

Compound: C=C[C@]1(C)C[C@@H](OC(=O)CCl)[C@]2(C)[C@H](C)CC[C@]3(CCC(=O)[C@H]32)[C@@H](C)[C@@H]1O [Compound P27]
- competition of P30 staining (ES-2 cells [1]): non-competing compounds

Compound: C[C@@H]1CC[C@@]23C[C@H](O)C(=O)[C@@]2(O)[C@]1(C)[C@H](OC(=O)CCl)C[C@@H](C1=CCC2C(=O)N(c4ccccc4)C(=O)C2C1)[C@@H]3C (stereo partly shown) [Compound P28]
- anticancer activity (in words) (ES-2 cell line): minimal loss in activity; also recorded: retain biological activity

Compound: C#CCN1C(=O)C2CC=C([C@@H]3C[C@@H](OC(=O)CCl)[C@]4(C)[C@H](C)CC[C@]5(C[C@H](O)C(=O)[C@]54O)[C@H]3C)CC2C1=O (stereo partly shown) [Compound P29]
- anticancer activity (in words) (ES-2 cell line): retained anticancer activity similar to ferroptocide; also recorded: retain biological activity

Compound: CC1=CC(C)=[N+]2C1=Cc1ccc(CCC(=O)NCCCn3cc(CN4C(=O)C5CC=C([C@@H]6C[C@@H](OC(=O)CCl)[C@]7(C)[C@H](C)CC[C@]8(C[C@H](O)C(=O)[C@]87O)[C@H]6C)CC5C4=O)nn3)n1[B-]2(F)F (stereo partly shown) [Compound P30]
- anticancer activity (in words) (ES-2 cell line): retained anticancer activity similar to ferroptocide; also recorded: retain biological activity

Compound: CC(=O)N[C@@H](CS)C(=O)O [NAC-1, N-acteyl cysteine]
- protection against ferroptocide-induced cell death (A549 cells): protection from ferroptocide- and TBHP-induced cell death
- protection against ferroptocide-induced cell death (HCT 116 cells): protection from ferroptocide- and TBHP-induced cell death

Compound: CC(C)[C@H](NC(=O)c1ccc2ccccc2n1)C(=O)N[C@@H](CC(=O)O)C(=O)COc1c(F)cccc1F [Q-VD-OPh]
- protection against ferroptocide-induced cell death (ES-2 cells [3]): does not protect against ferroptocide-induced cell death
- protection against ferroptocide-induced cell death (HCT 116 cells): does not protect against ferroptocide-induced cell death

Compound: C=CC1CN2CCC1CC2[C@H](OC(=O)CCl)c1ccnc2ccc(OC)cc12 (stereo partly shown) [QQ1]
- competition of P30 staining (ES-2 cells [1]): non-competing compounds

Compound: CCOC(=O)c1ccc(NC2CCCCC2)c(N)c1 [ferrostatin-1]
- protection against ferroptocide-induced cell death (A549 cells): significantly protected against ferroptocide-induced cell death
- protection against ferroptocide-induced cell death (ES-2 cells [3]): significantly protected against ferroptocide-induced cell death
- protection against ferroptocide-induced cell death (HCT 116 cells): significantly protected against ferroptocide-induced cell death
- protection against ferroptocide-induced cell death (4T1 cells): significantly protected against ferroptocide-induced cell death

Compound: Cc1c(C)c2c(c(C)c1O)CCC(C)(C(=O)O)O2 (stereo not shown) [trolox]
- protection against ferroptocide-induced cell death (A549 cells): significantly protected against ferroptocide-induced cell death
- protection against ferroptocide-induced cell death (ES-2 cells [3]): significantly protected against ferroptocide-induced cell death
- protection against ferroptocide-induced cell death (HCT 116 cells): significantly protected against ferroptocide-induced cell death
- protection against ferroptocide-induced cell death (4T1 cells): significantly protected against ferroptocide-induced cell death

Reference: patent US20220089602A1, “COMPOUNDS THAT INDUCE FERROPTIC CELL DEATH” (The Board of Trustees of the University of Illinois, priority 2019, published 2022)
